Measured values reported in PubChem BioAssay AID292 (DTP/NCI, 2004).
Several values for one entry are separate records, joined by “and”; a condition that tells them apart may be missing. Equal entries are not always repeated. Toxic doses and inconclusive results are not listed.

System: B6C3F1 mice, ip Sarcoma M5076, median survival T/C
Experiment: NCI In Vivo Anticancer Drug Screen. Data for tumor model Sarcoma M5076 (intraperitoneal) in B6C3F1 mice
Conditions: endpoint: median survival time, higher = longer survival
In short: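 The readout is a ratio of survival in drug-treated animals to survival in animals given vehicle alone, taken in mice bearing a transplanted tumour line.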

[1] = dose: 50.0 mg/kg/injection, schedule: Q04DX004 (ip), vehicle: Klucel (hydroxypropylcellulose) (HPC)
[2] = dose: 100.0 mg/kg/injection, schedule: Q04DX004 (ip), vehicle: Klucel (hydroxypropylcellulose) (HPC)
[3] = dose: 200.0 mg/kg/injection, schedule: Q04DX004 (ip), vehicle: Klucel (hydroxypropylcellulose) (HPC)
[4] = dose: 400.0 mg/kg/injection, schedule: Q04DX004 (ip), vehicle: Klucel (hydroxypropylcellulose) (HPC)
[5] = dose: 25.0 mg/kg/injection, schedule: Q04DX004 (ip), vehicle: Klucel (hydroxypropylcellulose) (HPC)
[6] = dose: 25.0 mg/kg/injection, schedule: Q04DX004 (ip), vehicle: saline with Tween-80
[7] = dose: 50.0 mg/kg/injection, schedule: Q04DX004 (ip), vehicle: saline with Tween-80
[8] = dose: 100.0 mg/kg/injection, schedule: Q04DX004 (ip), vehicle: saline with Tween-80
[9] = dose: 800.0 mg/kg/injection, schedule: Q04DX004 (ip), vehicle: Klucel (hydroxypropylcellulose) (HPC)
[10] = dose: 37.5 mg/kg/injection, schedule: Q04DX004 (ip), vehicle: saline with Tween-80
[11] = dose: 75.0 mg/kg/injection, schedule: Q04DX004 (ip), vehicle: saline with Tween-80
[12] = dose: 150.0 mg/kg/injection, schedule: Q04DX004 (ip), vehicle: saline with Tween-80

SMILES: Cc1cc(C)cc(N(C2=NCCS2)C2=NCCS2)c1
- T/C [1]: 100 % of control
- T/C [2]: 96 % of control
- T/C [3]: 92 % of control
- T/C [4]: 99 % of control

SMILES: O=C(N/N=C/c1ccc(O)cc1)c1ccc(OCc2nc3ccccc3[nH]2)cc1
- T/C [5]: 96 % of control
- T/C [2]: 93 % of control
- T/C [4]: 92 % of control

SMILES: COc1cccc(-n2cc[n+](C)c2/C=N/O)c1
- T/C (dose: 12.5 mg/kg/injection, schedule: Q04DX004 (ip), vehicle: saline with Tween-80): 108 % of control
- T/C [6]: 101 % of control
- T/C [7]: 108 % of control
- T/C [8]: 100 % of control

SMILES: COCCCn1c(C(Cl)(Cl)Cl)nn2c(=O)c3ccccc3nc2c1=O
- T/C [7]: 103 % of control
- T/C [8]: 99 % of control
- T/C (dose: 200.0 mg/kg/injection, schedule: Q04DX004 (ip), vehicle: saline with Tween-80): 94 % of control
- T/C (dose: 400.0 mg/kg/injection, schedule: Q04DX004 (ip), vehicle: saline with Tween-80): 90 % of control

SMILES: N[C@@H](Cc1c[nH]c2ccccc12)C(=O)Nc1nncs1
- T/C (dose: 16.67 mg/kg/injection, schedule: Q03HX012 (ip), vehicle: saline): 102 % of control
- T/C (dose: 33.34 mg/kg/injection, schedule: Q03HX012 (ip), vehicle: saline): 101 % of control
- T/C (dose: 66.67 mg/kg/injection, schedule: Q03HX012 (ip), vehicle: saline): 109 % of control
- T/C (dose: 100.0 mg/kg/injection, schedule: Q04DX004 (ip), vehicle: suspension in saline): 95 % of control
- T/C (dose: 133.34 mg/kg/injection, schedule: Q03HX012 (ip), vehicle: saline): 120 % of control
- T/C (dose: 200.0 mg/kg/injection, schedule: Q04DX004 (ip), vehicle: suspension in saline): 111 % of control
- T/C (dose: 266.67 mg/kg/injection, schedule: Q03HX012 (ip), vehicle: saline): 120 % of control
- T/C (dose: 400.0 mg/kg/injection, schedule: Q04DX004 (ip), vehicle: suspension in saline): 101 % of control
- T/C (dose: 800.0 mg/kg/injection, schedule: Q04DX004 (ip), vehicle: suspension in saline): 118 % of control

SMILES: N#CC1C(=O)NC(=O)C(C#N)C1c1ccncc1 (configuration not stated)
- T/C [1]: 100 % of control
- T/C [2]: 110 % of control
- T/C [3]: 91 % of control
- T/C [4]: 104 % of control
- T/C [9]: 96 % of control

SMILES: COc1ccc(C2NC(=S)NC(=O)C2C#N)cc1OC (configuration not stated)
- T/C [1]: 95 % of control
- T/C [2]: 100 % of control
- T/C [3]: 106 % of control
- T/C [4]: 105 % of control

SMILES: CN(C)N=Nc1ccccc1
- T/C (dose: 12.5 mg/kg/injection, schedule: Q04DX004 (ip), vehicle: Klucel (hydroxypropylcellulose) (HPC)): 113 % of control
- T/C [5]: 159 % of control
- T/C [1]: 187 % of control
- T/C [2]: 156 % of control

SMILES: O=C(NNC(=S)NC1OC(CO)C(O)C(O)C1O)c1cccc(C(=O)NNC(=S)NC2OC(CO)C(O)C(O)C2O)n1 (configuration not stated)
- T/C [10]: 97 % of control
- T/C (dose: 37.5 mg/kg/injection, schedule: Q04DX004 (ip), vehicle: saline): 101 % of control
- T/C [11]: 98 % of control
- T/C (dose: 75.0 mg/kg/injection, schedule: Q04DX004 (ip), vehicle: saline): 96 % of control
- T/C [12]: 98 % of control
- T/C (dose: 150.0 mg/kg/injection, schedule: Q04DX004 (ip), vehicle: saline): 101 % of control
- T/C (dose: 300.0 mg/kg/injection, schedule: Q04DX004 (ip), vehicle: saline with Tween-80): 99 % of control
- T/C (dose: 300.0 mg/kg/injection, schedule: Q04DX004 (ip), vehicle: saline): 96 % of control
- T/C (dose: 600.0 mg/kg/injection, schedule: Q04DX004 (ip), vehicle: saline with Tween-80): 98 % of control
- T/C (dose: 600.0 mg/kg/injection, schedule: Q04DX004 (ip), vehicle: saline): 103 % of control

SMILES: COC(=O)C1(F)C(=O)NC(=O)NC1OC (configuration not stated)
- T/C [1]: 100 % of control and 102 % of control
- T/C [2]: 106 % of control and 116 % of control
- T/C [3]: 104 % of control and 113 % of control
- T/C [4]: 109 % of control and 113 % of control
- T/C [9]: 102 % of control and 116 % of control

SMILES: CCOP(=S)(OCC)OC(=O)C(C)SSC (configuration not stated) (tested in a mixture with another compound)
- T/C [10]: 96 % of control
- T/C [11]: 99 % of control
- T/C [12]: 88 % of control

SMILES: O=C(O)c1ccc(NC(=O)C2C(=O)C(=O)N(c3ccc(C(=O)O)cc3)C2=O)cc1 (configuration not stated)
- T/C (dose: 50.0 mg/kg/injection, schedule: Q04DX004 (ip), vehicle: Klucel + Tween-80): 108 % of control
- T/C (dose: 100.0 mg/kg/injection, schedule: Q04DX004 (ip), vehicle: Klucel + Tween-80): 100 % of control
- T/C (dose: 200.0 mg/kg/injection, schedule: Q04DX004 (ip), vehicle: Klucel + Tween-80): 91 % of control
- T/C (dose: 400.0 mg/kg/injection, schedule: Q04DX004 (ip), vehicle: Klucel + Tween-80): 97 % of control

SMILES: NC12CC3CC(CC(C3)C1)C2
- T/C [6]: 100 % of control
- T/C [7]: 94 % of control

SMILES: COC(COC(=O)N1CCN(C=O)CC1)C1=C(N2CC2)C(=O)C(C)=C(N2CC2)C1=O (configuration not stated)
- T/C (dose: 1.5 mg/kg/injection, schedule: Q04DX004 (ip), vehicle: saline): 124 % of control
- T/C (dose: 3.0 mg/kg/injection, schedule: Q04DX004 (ip), vehicle: saline): 152 % of control
- T/C (dose: 3.6 mg/kg/injection, schedule: Q04DX004 (ip), vehicle: saline): 150 % of control
- T/C (dose: 6.0 mg/kg/injection, schedule: Q04DX004 (ip), vehicle: saline): 176 % of control and 190 % of control
- T/C (dose: 10.0 mg/kg/injection, schedule: Q04DX004 (ip), vehicle: saline): 245 % of control
- T/C (dose: 12.0 mg/kg/injection, schedule: Q04DX004 (ip), vehicle: saline): 151 % of control

SMILES: Nc1ccn(C2OC(CO)C(O)C2O)c(=O)n1 (configuration not stated)
- T/C (dose: 12.5 mg/kg/injection, schedule: Q01DX009 (ip), vehicle: saline): 150 % of control
- T/C (dose: 25.0 mg/kg/injection, schedule: Q01DX009 (ip), vehicle: saline): 162 % of control

SMILES: Cc1cc2nncn2c2nnnn12
- T/C (dose: 12.5 mg/kg/injection, schedule: Q04DX004 (ip), vehicle: water): 101 % of control
- T/C (dose: 25.0 mg/kg/injection, schedule: Q04DX004 (ip), vehicle: water): 98 % of control
- T/C (dose: 50.0 mg/kg/injection, schedule: Q04DX004 (ip), vehicle: water): 95 % of control
- T/C (dose: 100.0 mg/kg/injection, schedule: Q04DX004 (ip), vehicle: water): 101 % of control
- T/C (dose: 200.0 mg/kg/injection, schedule: Q04DX004 (ip), vehicle: water): 98 % of control

SMILES: CCN1CCC(=C(c2ccccc2)c2ccccc2)C1
- T/C (dose: 18.75 mg/kg/injection, schedule: Q04DX004 (ip), vehicle: Klucel (hydroxypropylcellulose) (HPC)): 105 % of control
- T/C (dose: 37.5 mg/kg/injection, schedule: Q04DX004 (ip), vehicle: Klucel (hydroxypropylcellulose) (HPC)): 99 % of control

SMILES: O=C1c2ccccc2C(=O)c2c(NCCNCCO)ccc(NCCNCCO)c21
- T/C (dose: 1.0 mg/kg/injection, schedule: Q04DX004 (ip), vehicle: saline): 112 % of control
- T/C (dose: 2.0 mg/kg/injection, schedule: Q04DX004 (ip), vehicle: saline): 120 % of control
- T/C (dose: 5.0 mg/kg/injection, schedule: Q04DX005 (ip), vehicle: saline): 234 % of control
- T/C (dose: 8.0 mg/kg/injection, schedule: Q04DX004 (ip), vehicle: saline): 158 % of control
- T/C (dose: 10.0 mg/kg/injection, schedule: Q04DX005 (ip), vehicle: saline): 319 % of control
- T/C (dose: 16.0 mg/kg/injection, schedule: Q04DX004 (ip), vehicle: saline): 174 % of control
- T/C (dose: 20.0 mg/kg/injection, schedule: Q04DX004 (ip), vehicle: suspension in saline): 156 % of control
- T/C (dose: 40.0 mg/kg/injection, schedule: Q04DX004 (ip), vehicle: suspension in saline): 172 % of control

SMILES: O=C1c2cccc(NCCCNCCO)c2C(=O)c2cccc(NCCCNCCO)c21
- T/C (dose: 12.5 mg/kg/injection, schedule: Q04DX004 (ip), vehicle: acid diluted with saline): 116 % of control
- T/C (dose: 25.0 mg/kg/injection, schedule: Q04DX004 (ip), vehicle: acid diluted with saline): 99 % of control
- T/C (dose: 50.0 mg/kg/injection, schedule: Q04DX004 (ip), vehicle: acid diluted with saline): 91 % of control

SMILES: O=c1[nH]c(=O)n(C2OC(CF)C(O)C2O)cc1N1CCOCC1 (configuration not stated)
- T/C (dose: 17.5 mg/kg/injection, schedule: Q04DX004 (ip), vehicle: saline): 100 % of control
- T/C (dose: 35.0 mg/kg/injection, schedule: Q04DX004 (ip), vehicle: saline): 104 % of control
- T/C (dose: 70.0 mg/kg/injection, schedule: Q04DX004 (ip), vehicle: saline): 97 % of control
- T/C (dose: 140.0 mg/kg/injection, schedule: Q04DX004 (ip), vehicle: saline): 104 % of control
- T/C (dose: 280.0 mg/kg/injection, schedule: Q04DX004 (ip), vehicle: saline): 102 % of control
